Laboratory results published in patent publication US7238813B2, “Chemical compounds” (Smithkline Beecham Corporation, priority 2000, dated 2007).
Counter-ions that a name gives are not always drawn.

Key:
[1] = molecular target: T1, GST-TIE2 (intracellular domains of human TIE2) (Homo sapiens, UniProt Q02763); assay: TIE-2 enzyme assay (TIE2-E), LANCE method; assay type: biochemical; details: 80 uM ATP
T1 construct: made in house
Outline: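 Baculovirus GST-TIE2 (human intracellular domain, aa 762–1104) preactivated 30 min at RT with 2 mM ATP, then reacted 30 min at RT with 1 μM D1-15 peptide, 80 uM ATP, 10 mM MgCl2, pH 7.4, 2.4% DMSO. EDTA-stopped; LANCE Eu-anti-pTyr/streptavidin-APC read-out. IC50 by nonlinear regression, reported as pIC50.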

[2] = molecular target: T2, TIE2 intracellular domain/c-fms extracellular domain (TIE2/c-fms) chimeric protein expressing mouse 3T3 cells (Homo sapiens, UniProt Q02763); assay: TIE-2 autophosphorylation assay (TIE2-C), ELISA; assay type: cell-based; details: TIE2/c-fms 3T3 cells, MCSF activation
T2 construct: a TIE2 intracellular domain/c-fms extracellular domain (TIE2/c-fms) chimeric protein; expressed in transfected cells; host or cells: mouse 3T3 cells
Description: TIE-2 Autophosphorylation Assay (TIE2-C)
The TIE-2 autophosphorylation assay used an ELISA method and a TIE2 intracellular domain/c-fms extracellular domain (TIE2/c-fms) chimeric protein expressing mouse 3T3 cells. This assay measured the autophosphorylation level of TIE2 protein expressed in cells. The cells were cultured in high glucose DMEM (Sigma) containing 10% serum at 37° C. in a humidified 10% CO2, 90% air incubator. The test compound (diluted from a 10 mM stock in DMSO, final DMSO concentration was 0.1%) was incubated with TIE2/c-fms expressing cells for 1 hr in serum free DMEM in 96 well plates followed by the activation of TIE2/c-fms receptor using c-fms ligand, MCSF (macrophage colony stimulating factor). The culture media was removed by aspiration and the cells incubated for at least 30 mins on ice with lysis buffer containing 137 mM NaCl, 2 mM EDTA, 10% glycerol, […] sodium ortho vanadate and complete protease inhibitor cocktail (Roche) in 20 mM Tris-HCl (pH8.0). The cell extracts were transferred into Rat anti-c-fms antibody coated 96 well plates and incubated for 12 hrs at 4° C. The extracts were removed by aspiration and the plate was incubated with biotinylated anti-phosphotyrosine antibody, PT66 (Sigma) and then with HRP (Horseradish Peroxidase)-labeled streptavidin (PIERCE). The optical density at 450 nm derived from HRP catalyzed TMB was measured with an ARVO multilabel counter. (Wallac Berthold Japan). The percent inhibition of activity was calculated relative to blank control wells. The concentration of test compound that inhibits 50% of activity (IC50) was interpolated using nonlinear regression (Levernberg-Marquardt) and the equation, y=Vmax (1−x/(K+x))+Y2, where “K” was equal to the IC50. The IC50 values were converted to pIC50 values, i.e., −log IC50 in Molar concentration.

GST-VEGFR2 = molecular target: T3, GST-VEGFR2 (Homo sapiens, UniProt P35968); assay: VEGF-R2 enzyme assay (VEGF-E), LANCE method; assay type: biochemical; details: 75 μM ATP
T3 construct: GST-VEGFR2, baculovirus expressed recombinant constructs of the intracellular domains of human TIE2 tagged by GST; made in house

[3] = test system: Human umbilical cord endothelial cells (HUVEC); assay: VEGF-driven cellular proliferation assay: BrdU incorporation assay (VEGF-C); assay type: cell-based; parameters: key to VEGF-C: + = pIC50 of 5.0–6.0; ++ = pIC50 of 6.0–7.0; +++ = pIC50 of > 7.0; − = a negative or inconclusive result; details: for IC50: Homo sapiens
Description: VFGF-driven Cellular Proliferation Assay: BrdU Incorporation Assay (VEGF-C)
Human umbilical cord endothelial cells (HUVEC, Clonetics, CC2519) were passaged in Type I collagen-coated 100-mm petridishes in EGM-MV medium (Clonetics, CC3125) at 37° C. in a humidified 5% CO2, 95% air incubator. (HUVEC passaged more than 6 times in vitro were discarded and not subjected to assaying.) The cells were harvested using trypsin/EDTA, counted using a haemocytometer and plated at 5000 cells/well in a Type I-collagen coated 96-well plate (Becton Dickinson, 354407) in M199 medium (Gibco BRL, 12340-030) containing 5% FBS (Hyclone, A 1115-L) and gentamicin (at 50 μg/ml, Gibco BRL). After incubation overnight at 37° C., the media were replaced with 100 μl of M199 serum-free medium containing compounds at various concentrations with 0.6% DMSO and gentamicin. The compounds were diluted in serum-free M199 medium from 10 mM stock solutions prepared in 100% DMSO. After a 30 min incubation at 37° C., the cells were fed with 100 μl of serum-free M199 medium containing gentamicin, 0.2% culture-grade bovine serum albumin (BSA, Sigma A1993) and 20 ng/ml of VEGF (R&D systems, 293-VE) or 0.6 ng/ml of basic FGF (R&D systems, 233-FB), and cultured at 37° C. for another 24 h. The cells were pulsed with bromodeoxyuridine (BrdU at 10 μM in serum-free M199) at 37° C. for an additional 24 h. The incorporation of BrdU into the proliferating HUVEC were analyzed using BrdU Cell Proliferation ELISA (Roche Molecular Biochemicals, 1647229) according to the manufacturer's protocols. The optical density at 450 nm was measured with a multilabel counter (ARVO SX, Wallac). The percent inhibition of cell growth was calculated relative to blank control wells. The concentration of test compound that inhibits 50% of cell growth (IC50) was interpolated using nonlinear regression (Levernberg-Marquardt) and the equation, y=Vmax (1−x/(K+x))+Y2, where “K” was equal to the IC50. The IC50, values were converted to pIC50 values, i.e., −log IC50 in Molar concentration.

T1 sequence (Q02763 762-1104): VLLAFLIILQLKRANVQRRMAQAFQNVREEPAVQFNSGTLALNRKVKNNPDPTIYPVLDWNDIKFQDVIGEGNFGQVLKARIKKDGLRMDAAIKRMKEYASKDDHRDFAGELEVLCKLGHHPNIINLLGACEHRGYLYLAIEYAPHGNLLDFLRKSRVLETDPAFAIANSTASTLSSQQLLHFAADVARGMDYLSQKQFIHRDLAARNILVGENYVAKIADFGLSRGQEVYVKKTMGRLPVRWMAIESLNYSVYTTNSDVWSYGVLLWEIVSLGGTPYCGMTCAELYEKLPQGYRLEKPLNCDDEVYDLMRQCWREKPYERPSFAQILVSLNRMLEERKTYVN
T2 sequence (Q02763 770-1124 limits assumed, change not shown): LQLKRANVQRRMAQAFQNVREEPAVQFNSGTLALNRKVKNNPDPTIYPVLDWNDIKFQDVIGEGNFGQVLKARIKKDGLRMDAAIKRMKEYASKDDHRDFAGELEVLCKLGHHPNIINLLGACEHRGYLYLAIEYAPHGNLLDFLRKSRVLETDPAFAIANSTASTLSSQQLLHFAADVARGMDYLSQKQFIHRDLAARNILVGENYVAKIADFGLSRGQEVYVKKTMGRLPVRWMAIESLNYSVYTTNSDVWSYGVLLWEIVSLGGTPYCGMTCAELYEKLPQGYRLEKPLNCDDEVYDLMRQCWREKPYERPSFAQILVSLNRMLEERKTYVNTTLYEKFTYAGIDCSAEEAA
T3 sequence (P35968 786-1356 limits assumed): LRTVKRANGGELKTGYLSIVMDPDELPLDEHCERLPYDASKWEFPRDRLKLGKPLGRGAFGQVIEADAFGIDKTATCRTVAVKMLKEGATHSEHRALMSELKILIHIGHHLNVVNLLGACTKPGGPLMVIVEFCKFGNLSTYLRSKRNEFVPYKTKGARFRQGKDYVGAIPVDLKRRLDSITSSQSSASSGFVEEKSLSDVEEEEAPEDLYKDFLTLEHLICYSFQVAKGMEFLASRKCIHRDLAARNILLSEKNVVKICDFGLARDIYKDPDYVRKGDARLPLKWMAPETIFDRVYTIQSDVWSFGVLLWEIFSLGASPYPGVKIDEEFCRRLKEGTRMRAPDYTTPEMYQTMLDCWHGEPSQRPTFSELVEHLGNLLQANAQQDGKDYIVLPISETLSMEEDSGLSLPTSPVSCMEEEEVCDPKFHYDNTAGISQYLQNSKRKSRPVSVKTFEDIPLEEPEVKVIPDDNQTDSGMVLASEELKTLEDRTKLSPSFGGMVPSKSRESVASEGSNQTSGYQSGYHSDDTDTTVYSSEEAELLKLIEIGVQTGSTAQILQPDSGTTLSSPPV

| IC50 [1] | IC50 [2] | IC50 (GST-VEGFR2) | SMILES | IC50 [3] | VEGF-C [3] |
| --- | --- | --- | --- | --- | --- |
| < 0.1 µM | < 0.1 µM | < 0.1 µM | O=C(Nc1ccc(Oc2ccc3[nH]c(NC(=O)C4CCCO4)nc3c2)cc1)Nc1cc(C(F)(F)F)ccc1F (stereo not shown) [Example 94] | 1 to 10 µM |  |
| < 0.1 µM | < 0.1 µM | < 0.1 µM | COC(=O)Nc1nc2cc(Oc3ccc(NC(=O)Nc4cc(C(F)(F)F)ccc4Cl)cn3)ccc2[nH]1 [Example 111, Methyl-N-(5-(5-((2-chloro-5-(trifluoromethyl)phenyl)aminocarbonylamino)-2-pyridyloxy)-1H-benzimidazol-2-yl)carbamate] |  | − |
| < 0.1 µM | < 0.1 µM | < 0.1 µM | CC(C)(C)OC(=O)Nc1nc2cc(Oc3ccc(NC(=O)Nc4cc(C(F)(F)F)ccc4F)cc3)ccc2[nH]1 [Example 18, t-Butyl N-(5-(4-((2-fluoro-5-(trifluoromethyl)phenyl)aminocarbonylamino)phenoxy)-1H-benzimidazol-2-yl)carbamate] | < 0.1 µM |  |
| < 0.1 µM | 0.1 to 1 µM | < 0.1 µM | COC(=O)Nc1nc2cc(Oc3ccc(NC(=O)Nc4ccc(Cl)c(C(F)(F)F)c4)cc3)ccc2[nH]1 [Example 44, Methyl N-(5-(4-((4-chloro-3-(trifluoromethyl)phenyl)aminocarbonylamino)phenoxy)-1H-benzimidazol-2-yl)carbamate] |  | − |
| 0.1 to 1 µM | < 0.1 µM | < 0.1 µM | COC(=O)Nc1nc2cc(Oc3ccc(NC(=O)Nc4cc(F)ccc4F)cc3)ccc2[nH]1 [Example 56, Methyl N-(5-(4-((2,5-difluorophenyl)aminocarbonylamino)phenoxy)-1H-benzimidazol-2-yl)carbamate] |  | − |
| < 0.1 µM | < 0.1 µM | < 0.1 µM | NCC(=O)Nc1nc2cc(Oc3ccc(NC(=O)Nc4cc(C(F)(F)F)ccc4F)cc3)ccc2[nH]1 [Example 30, N-(5-(4-((2-Fluoro-5-(trifluoromethyl)phenyl)aminocarbonylamino)phenoxy)-1H-benzimidazol-2-yl)-2-aminoacetamide dihydrochloride] | 0.1 to 1 µM |  |
| < 0.1 µM | < 0.1 µM | < 0.1 µM | CCOC(=O)Nc1nc2cc(Oc3ccc(NC(=O)Nc4cc(C(F)(F)F)ccc4F)cc3)ccc2[nH]1 [Example 17, Ethyl N-(5-(4-((2-fluoro-5-(trifluoromethyl)phenyl)aminocarbonylamino)phenoxy)-1H-benzimidazol-2-yl)carbamate] | < 0.1 µM |  |
| < 0.1 µM | < 0.1 µM | < 0.1 µM | CN(C)CCCC(=O)Nc1nc2cc(Oc3ccc(NC(=O)Nc4cc(C(F)(F)F)ccc4F)cc3)ccc2[nH]1 [Example 92, N-(5-(4-((2-Fluoro-5-(trifluoromethyl)phenyl)aminocarbonylamino)phenoxy)-1H-benzimidazol-2-yl)-4-(dimethylamino)butylamide] | < 0.1 µM |  |
| < 0.1 µM | 0.1 to 1 µM | < 0.1 µM | Cc1ccc(S(=O)(=O)n2c(N)nc3ccc(Oc4ccc(NC(=O)Nc5cc(C(F)(F)F)ccc5F)cc4)cc32)cc1 [Example 24, 6-(4-((2-Fluoro-5-(trifluoromethyl)phenyl)aminocarbonylamino)phenoxy)-1-(4-(methyl)phenylsulfonyl)-1H-benzimidazol-2-ylamine] |  | − |
| 0.1 to 1 µM | 0.1 to 1 µM | < 0.1 µM | COC(=O)Nc1nc2cc(Oc3ccc(NC(=O)Nc4cccc(C#N)c4)cc3)ccc2[nH]1 [Example 49] |  | − |
| < 0.1 µM | < 0.1 µM | < 0.1 µM | COC(=O)Nc1nc2cc(Oc3ccc(NC(=O)Nc4cccc(SC)c4)cc3)ccc2[nH]1 [Example 48] |  | − |
| < 0.1 µM | 0.1 to 1 µM | < 0.1 µM | COC(=O)Nc1nc2ccc(Oc3ccc(NC(=O)Nc4cc(C(F)(F)F)ccc4F)cc3)cc2n1CCN(C)C [Example 70, Methyl N-(6-(4-((2-fluoro-5-(trifluoromethyl)phenyl)aminocarbonylamino)phenoxy)-1-(2-(dimethylamino)ethyl)-1H-benzimidazol-2-yl)carbamate] | 1 to 10 µM |  |
| < 0.1 µM | < 0.1 µM | < 0.1 µM | CN(C)CC(=O)Nc1nc2cc(Oc3ccc(NC(=O)Nc4cc(C(F)(F)F)ccc4F)cc3)ccc2[nH]1 [Example 102] | < 0.1 µM |  |
| < 0.1 µM | < 0.1 µM |  | COC(=O)Nc1nc2ccc(Oc3ccc(NC(=O)Nc4cc(C(F)(F)F)ccc4Cl)cc3)cc2s1 [Example 76, Methyl N-(6-(4-((2-chloro-5-(trifluoromethyl)phenyl)aminocarbonylamino)phenoxy)benzthiazol-2-yl)carbamate] |  | − |
| < 0.1 µM | 0.1 to 1 µM |  | CCc1cccc(NC(=O)Nc2ccc(Oc3ccc4[nH]c(NC(=O)OC)nc4c3)cc2)c1 [Example 11, Methyl N-(5-(4-((3-ethylphenyl)aminocarbonylamino)phenoxy)-1H-benzimidazol-2-yl)carbamate] |  | − |
| < 0.1 µM | 0.1 to 1 µM |  | O=C(O)CCC(=O)Nc1nc2cc(Oc3ccc(NC(=O)Nc4cc(C(F)(F)F)ccc4F)cc3)ccc2[nH]1 [Example 32, 3-(N-(5-(4-((2-Fluoro-5-(trifluoromethyl)phenyl)aminocarbonylamino)phenoxy)-1H-benzimidazol-2-yl)carbamoyl)propionic acid] | 1 to 10 µM |  |
| < 0.1 µM | < 0.1 µM |  | CS(=O)(=O)n1c(N)nc2ccc(Oc3ccc(NC(=O)Nc4cc(C(F)(F)F)ccc4F)cc3)cc21 [Example 23] | 0.1 to 1 µM |  |
| < 0.1 µM | < 0.1 µM |  | COC(=O)Nc1nc2cc(Oc3ccc(NC(=O)Nc4cccc(Br)c4)cc3)ccc2[nH]1 [Example 40, Methyl N-(5-(4-((3-bromophenyl)aminocarbonylamino)phenoxy)-1H-benzimidazol-2-yl)carbamate] |  | − |
| < 0.1 µM | < 0.1 µM |  | COCCOCC(=O)Nc1nc2ccc(Oc3ccc(NC(=O)Nc4cc(C(F)(F)F)ccc4F)cc3)cc2[nH]1 [Example 34] |  | − |
| < 0.1 µM | < 0.1 µM |  | COC(=O)Nc1nc2cc(Oc3ccc(NC(=O)Nc4cccc(SC(F)(F)F)c4)cc3)ccc2[nH]1 [Example 41, Methyl N-(5-(4-((3-(trifluoromethylthio)phenyl)aminocarbonylamino)phenoxy)-1H-benzimidazol-2-yl)carbamate] |  | − |
